Measured values reported in US10513567B2, “Polycations and methods of making and using thereof” (Georgia Tech Research Corporation, priority 2016, dated 2019).

Experiment: Fragmentation (hydrolysis) of WCL pyridine adducts and oligocations in deuterated aqueous buffer followed by 1H NMR
Assay type: physicochemical
Description: The fragmentation of cationic adducts was followed by ^1H NMR in deuterated buffer, with the relative concentration of each species established by integration of unique resonances. Each adduct in Table 3 and Table 4 was thus examined in three independent runs.
Each adduct dinitrate was isolated, characterized, and heated at 50° C. in deuterated buffer; following the disappearance of the adduct by NMR, first-order rate constants of fragmentation were obtained.
Using the conditions of Table 4, three additional oligocations were prepared from the bis(pyridine) linkers as shown in Table 5. […] The stabilities of these compounds toward fragmentation under aqueous conditions were assessed by NMR in deuterated buffer, following the disappearance of the thiabicyclononane C—H resonance adjacent to the pyridine group (position g in FIG. 14) and the appearance of the corresponding resonance (4.3 ppm) for the diol product 4 (FIG. 6).

Structure (SMILES)	kfrag, pseudo first order fragmentation (50° C., deuterated buffer)	kfrag, pseudo first order fragmentation (37° C.)	krel (37° C., relative to 5i)	krel (50° C., relative to 5e)
COC(=O)c1ccc[n+](C2CCC3SC2CCC3[n+]2cccc(C(=O)OC)c2)c1.O=[N+]([O-])[O-].O=[N+]([O-])[O-] (centres unmarked) [Compound 5b, 2,6-di-3-methoxycarbonylpyridinium-9-thiabicyclo[3.3.1]nonane dinitrate]	(3.03 ± 0.38) × 10^−2 h^−1			
COC(=O)c1cc[n+](C2CCC3SC2CCC3[n+]2ccc(C(=O)OC)cc2)cc1.O=[N+]([O-])[O-].O=[N+]([O-])[O-] (centres unmarked) [Compound 5c, 2,6-di-4-methoxycarbonylpyridinium-9-thiabicyclo[3.3.1]nonane dinitrate]	(3.66 ± 0.33) × 10^−2 h^−1	(0.16 ± 0.01) × 10^−2 h^−1	0.3	
NC(=O)c1ccc[n+](C2CCC3SC2CCC3[n+]2cccc(C(N)=O)c2)c1.O=[N+]([O-])[O-].O=[N+]([O-])[O-] (centres unmarked) [Compound 5d, 2,6-di-3-carbamylpyridinium-9-thiabicyclo[3.3.1]nonane dinitrate]	(3.18 ± 0.32) × 10^−2 h^−1			
NC(=O)c1cc[n+](C2CCC3SC2CCC3[n+]2ccc(C(N)=O)cc2)cc1.O=[N+]([O-])[O-].O=[N+]([O-])[O-] (centres unmarked) [Compound 5e, 2,6-di-4-carbamylpyridinium-9-thiabicyclo[3.3.1]nonane dinitrate]	(1.62 ± 0.10) × 10^−2 h^−1			1.00
Brc1ccc[n+](C2CCC3SC2CCC3[n+]2cccc(Br)c2)c1.O=[N+]([O-])[O-].O=[N+]([O-])[O-] (centres unmarked) [Compound 5f, 2,6-di-3-bromopyridinium-9-thiabicyclo[3.3.1]nonane dinitrate]	(6.59 ± 0.58) × 10^−2 h^−1			
FC(F)(F)c1ccc[n+](C2CCC3SC2CCC3[n+]2cccc(C(F)(F)F)c2)c1.O=[N+]([O-])[O-].O=[N+]([O-])[O-] (centres unmarked) [Compound 5g, 2,6-di-3-trifluoromethylpyridinium-9-thiabicyclo[3.3.1]nonane dinitrate]	(74.8 ± 5.4) × 10^−2 h^−1	(5.87 ± 0.71) × 10^−2 h^−1	11	
N#Cc1ccc[n+](C2CCC3SC2CCC3[n+]2cccc(C#N)c2)c1.O=[N+]([O-])[O-].O=[N+]([O-])[O-] (centres unmarked) [Compound 5h, 2,6-di-3-cyanopyridinium-9-thiabicyclo[3.3.1]nonane dinitrate]	(10.8 ± 0.98) × 10^−2 h^−1	(1.14 ± 0.16) × 10^−2 h^−1	2.1	
COc1cc(Br)c[n+](C2CCC3SC2CCC3[n+]2cc(Br)cc(OC)c2)c1.O=[N+]([O-])[O-].O=[N+]([O-])[O-] (centres unmarked) [Compound 5i, 2,6-di-3-bromo-5-methoxylpyridinium-9-thiabicyclo[3.3.1]nonane dinitrate]	(7.51 ± 0.53) × 10^−2 h^−1	(0.55 ± 0.04) × 10^−2 h^−1	1	
NC(=O)c1cc(Br)c[n+](C2CCC3SC2CCC3[n+]2cc(Br)cc(C(N)=O)c2)c1.O=S(=O)([O-])C(F)(F)F.O=S(=O)([O-])C(F)(F)F (centres unmarked) [Compound 5j, 2,6-di-3-bromo-5-carbamylpyridinium-9-thiabicyclo[3.3.1]nonane ditriflate]		(9.34 ± 0.87) × 10^−2 h^−1	17	
COC(=O)c1cc(C(=O)OC)c[n+](C2CCC3SC2CCC3[n+]2cc(C(=O)OC)cc(C(=O)OC)c2)c1.O=S(=O)([O-])C(F)(F)F.O=S(=O)([O-])C(F)(F)F (centres unmarked) [Compound 5k, 2,6-di-3,5-dimethoxycarbonylpyridinium-9-thiabicyclo[3.3.1]nonane ditriflate]		(11.9 ± 1.13) × 10^−2 h^−1	22	
COC(=O)c1cc(Br)c[n+](C2CCC3SC2CCC3[n+]2cc(Br)cc(C(=O)OC)c2)c1.O=S(=O)([O-])C(F)(F)F.O=S(=O)([O-])C(F)(F)F (centres unmarked) [Compound 5l, 2,6-di-3-bromo-5-methoxycarbonylpyridinium-9-thiabicyclo[3.3.1]nonane ditriflate]		(10.9 ± 1.81) × 10^−2 h^−1	20	
